Reference: US20160101188A1, “NOVEL NANOCARRIER DELIVERED CANCER CHEMOTHERAPEUTIC AGENTS” (UNIVERSITY OF CINCINNATI, priority 2013, published 2016)

Tests used:
Prostate PC-3 = assay: NCI in vitro cell line screen (SRB), single dose; assay type: cell-based, human; details: Prostate PC-3, single dose of 10 μM
Method: (§1) Four of the preliminary lead compounds: three nucleosides (JT-1-10, VAL-1-15/42, VAL-1-16) and one nucleobase (KB-1-17)—were submitted to the National Cancer Institute for the in vitro cell line screening project (IVCLSP). The screening consisted in the evaluation of this compound against the 60 cell lines at a single dose of 10 μM.
(§2) The human tumor cell lines of the cancer screening panel are grown in RPMI 1640 medium containing 5% fetal bovine serum and 2 mM L-glutamine. For a typical screening experiment, cells are inoculated into 96 well microtiter plates in 100 μL at plating densities ranging from 5,000 to 40,000 cells/well depending on the doubling time of individual cell lines. After cell inoculation, the microtiter plates are incubated at 37° C., 5% CO2, 95% air and 100% relative humidity for 24 h prior to addition of experimental drugs.
(§3) After 24 h, two plates of each cell line are fixed in situ with TCA, to represent a measurement of the cell population for each cell line at the time of drug addition (Tz). Experimental drugs are solubilized in dimethyl sulfoxide at 400-fold the desired final maximum test concentration and stored frozen prior to use. At the time of drug addition, an aliquot of frozen concentrate is thawed and diluted to twice the desired final maximum test concentration with complete medium containing 50 μg/ml gentamicin. Additional four, 10-fold or ½ log serial dilutions are made to provide a total of five drug concentrations plus control. Aliquots of 100 μl of these different drug dilutions are added to the appropriate microtiter wells already containing 100 μl of medium, resulting in the required final drug concentrations.
(§4) Following drug addition, the plates are incubated for an additional 48 h at 37° C., 5% CO2, 95% air, and 100% relative humidity. For adherent cells, the assay is terminated by the addition of cold TCA. Cells are fixed in situ by the gentle addition of 50 μl of cold 50% (w/v) TCA (final concentration, 10% TCA) and incubated for 60 minutes at 4° C. The supernatant is discarded, and the plates are washed five times with tap water and air dried. Sulforhodamine B (SRB) solution (100 μl) at 0.4% (w/v) in 1% acetic acid is added to each well, and plates are incubated for 10 minutes at room temperature. After staining, unbound dye is removed by washing five times with 1% acetic acid and the plates are air dried. Bound stain is subsequently solubilized with 10 mM trizma base, and the absorbance is read on an automated plate reader at a wavelength of 515 nm. For suspension cells, the methodology is the same except that the assay is terminated by fixing settled cells at the bottom of the wells by gently adding 50 μl of 80% TCA (final concentration, 16% TCA). Using the seven absorbance measurements [time zero, (Tz), control growth, (C), and test growth in the presence of drug at the five concentration levels (Ti)], the percentage growth is calculated at each of the drug concentrations levels. Percentage growth inhibition is calculated as:
(§5) [(Ti−Tz)/(C−Tz)]×100 for concentrations for which Ti>/=Tz
(§6) [(Ti−Tz)/Tz]×100 for concentrations for which Ti<Tz.
(§7) Three dose response parameters are calculated for each experimental agent. Growth inhibition of 50% (GI50) is calculated from [(Ti−Tz)/(C−Tz)]×100=50, which is the drug concentration resulting in a 50% reduction in the net protein increase (as measured by SRB staining) in control cells during the drug incubation. The drug concentration resulting in total growth inhibition (TGI) is calculated from Ti=Tz. The LC50 (concentration of drug resulting in a 50% reduction in the measured protein at the end of the drug treatment as compared to that at the beginning) indicating a net loss of cells following treatment is calculated from [(Ti−Tz)/Tz]×100=−50. […]

Renal CAKI-1 = assay: NCI in vitro cell line screen (SRB), single dose; assay type: cell-based, human; details: Renal CAKI-1, single dose of 10 μM
Method: as §1, §2, §3, §4, §5, §6, §7

[1] = system: Non-Small Cell Lung HOP-92; assay: NCI in vitro cell line screen (SRB), single dose; assay type: cell-based, human; details: Non-Small Cell Lung HOP-92, single dose of 10 μM
Method: as §1, §2, §3, §4, §5, §6, §7

CNS SNB-75 = assay: NCI in vitro cell line screen (SRB), single dose; assay type: cell-based, human; details: CNS SNB-75, single dose of 10 μM
Method: as §1, §2, §3, §4, §5, §6, §7

[2] = system: MCF7 (breast cancer) cells; assay: MTT cytotoxicity assay in MCF7 breast cancer cells; assay type: cell-based; details: 65 hours incubation, read-out: IC50, viability of MCF7 cells from the MTT assay
Method: The cyctoxicity of compounds was determined in MCF 7 (breast cancer) cells.
MCF7 cells were grown in RPMI 1640 media with 10 nM estrogen and 1 mM insulin. Cells were tyripsinized and resuspended at a density of 2.2×10^4 cells per mL. 500 μL of this suspension was added to each well in a 24 well plate. The plates were incubated at 37° C. and 5% CO2 atmosphere overnight. The media was changed, and plates were dosed in triplicate with compound dissolved in DMSO. Cells were dosed not to exceed 0.5% DMSO in solution. Cells were dosed to a final concentration of 100, 50, 25, 12.5, and 6.25 μM of compound. 5-Flurouracil was used as a positive control and dosed in the same manner. Plates were incubated for 65 hours prior to the addition of MTT solution. 500 μL of a 193 μg/mL MTT and media solution was added to each well. Plates were incubated for 3 hours. The MTT solution was removed and 500 μL of DMSO was added to each well. Cells were imaged using GS 800 Bio Rad scanner and Quality One Software. IC50 curves were determined by plotting viability verses compound concentration. Kaleidagraph software was used to calculate the R value for each logarithmic curve fitting.

Breast MSF7 = assay: NCI in vitro cell line screen (SRB), single dose; assay type: cell-based, human; details: Breast MSF7, single dose of 10 μM
Method: as §1, §2, §3, §4, §5, §6, §7

[3] = system: Non-Small Cell Lung NCI-H522; assay: NCI in vitro cell line screen (SRB), single dose; assay type: cell-based, human; details: Non-Small Cell Lung NCI-H522, single dose of 10 μM
Method: as §1, §2, §3, §4, §5, §6, §7

Leukemia RPMI-8226 = assay: NCI in vitro cell line screen (SRB), single dose; assay type: cell-based, human; details: Leukemia RPMI-8226, single dose of 10 μM
Method: as §1, §2, §3, §4, §5, §6, §7

Renal UO-31 = assay: NCI in vitro cell line screen (SRB), single dose; assay type: cell-based, human; details: Renal UO-31, single dose of 10 μM
Method: as §1, §2, §3, §4, §5, §6, §7

Renal TK-10 = assay: NCI in vitro cell line screen (SRB), single dose; assay type: cell-based, human; details: Renal TK-10, single dose of 10 μM
Method: as §1, §2, §3, §4, §5, §6, §7

Renal A498 = assay: NCI in vitro cell line screen (SRB), single dose; assay type: cell-based, human; details: Renal A498, single dose of 10 μM
Method: as §1, §2, §3, §4, §5, §6, §7

Melanoma UACC-62 = assay: NCI in vitro cell line screen (SRB), single dose; assay type: cell-based, human; details: Melanoma UACC-62, single dose of 10 μM
Method: as §1, §2, §3, §4, §5, §6, §7

CNS SF-268 = assay: NCI in vitro cell line screen (SRB), single dose; assay type: cell-based, human; details: CNS SF-268, single dose of 10 μM
Method: as §1, §2, §3, §4, §5, §6, §7

γ-H2AX = assay: Western blot of drug-treated MCF7 cells detecting double-strand break marker γ-H2AX; assay type: cell-based; details: 4.5 μM, 16 hours, nuclear extract, two trials (FIG. 3)
Method: Vehicle controls were simultaneously prepared by treatment with DMSO.
Nuclear proteins from both the drug-treated and control samples were conducted using NE-PER Nuclear and Cytoplasmic Extraction Kit (Thermo Scientific) using the manufacturer's protocol. In detail, cells were harvested by trypsin-EDTA and centrifuged at 500×g for 5 minutes. The cells were washed to remove traces of trypsin by suspending in 1×PBS, followed by centrifugation at 500×g for 2-3 minutes. The supernatant was removed leaving the cell pellet as dry as possible. A 200 μL volume of ice-cold cytoplasmic extraction reagent I (CER-I), treated Halt™ Protease & Phosphatase Inhibitor Cocktail (Thermo Scientific), was added to the pellet. The cell pellet was suspended by vortexing vigorously for 15 seconds and then incubated on ice for 10 minutes. The mixture is then treated with 11 μL of ice-cold cytoplasmic extraction reagent II (CER-II) and mixed by vortexing on the highest setting for 5 seconds followed by incubation on ice of one minute to allow complete release of cytoplasmic contents. […]
Protein concentration in each sample and control was determined by Bradford Assay using Coomassie Plus™ (Bradford) Assay Kit (Thermo Scientific), applying the manufacturer's instruction. […] The absorbance is then measured at 595 nm using a Synergy 4 plate reader (Biotek). […]

Structure (SMILES)	Growth Percent (Prostate PC-3) [%]	Growth Percent [1] [%]	Growth Percent (CNS SNB-75) [%]	IC50 [2] [µM]	further results
CC(C)(C)C(OCc1cn([C@H]2C[C@H](O)[C@@H](CO)O2)c(=O)[nH]c1=O)c1ccccc1[N+](=O)[O-] (stereo partly shown) [VAL-1-15/27/42, 5-[1-(2-nitrophenyl)-2,2-(dimethyl)propoxymethyl]-2′-deoxyuridine]	91	73	84	42	Growth Percent (Renal CAKI-1): 88%
CC(C)(C)C(OCc1cn([C@H]2C[C@H](O)[C@@H](CO)O2)c(=O)[nH]c1=O)c1ccccc1 (stereo partly shown) [JT-1-10, 5-[1-(phenyl)-2,2-(dimethyl)-1-propoxymethyl]-2′-deoxyuridine]	–	89	65	188	Growth Percent (Breast MSF7): 87%; Growth Percent [3]: 91%; Growth Percent (Leukemia RPMI-8226): 90%; Growth Percent (Renal UO-31): 88%; Growth Percent (Renal TK-10): 84%
CC(C)(C)CC(OCc1cn([C@H]2C[C@H](O)[C@@H](CO)O2)c(=O)[nH]c1=O)c1ccccc1 (stereo partly shown) [VAL-1-16, 5-[1-(phenyl)-3,3-(dimethyl)-1-butoxymethyl]-2′-deoxyuridine]	–	–	92	–	Growth Percent (Renal A498): 92%; Growth Percent (Melanoma UACC-62): 90%
CC(C)(C)C(OCc1c[nH]c(=O)[nH]c1=O)c1ccccc1[N+](=O)[O-] (stereo not shown) [KB-1-17, 5-[1-(2-nitrophenyl)-2,2-(dimethyl)propoxymethyl]uracil]	93	68	–	81	Growth Percent (CNS SF-268): 91%
CC(C)(C)C(OCc1cn([C@H]2C[C@H](O)[C@@H](CO)O2)c(=O)[nH]c1=O)c1ccc(C#Cc2ccccc2)cc1[N+](=O)[O-] (stereo partly shown) [VAL-1-36/38, 5-[1-(4-{2-phenylacetylenyl}-2-nitrophenyl)-2,2-(dimethyl)-1-propoxymethyl]-2′-deoxyuridine]	–	–	–	9 ± 1	double-strand break marker γ-H2AX (DNA damage response) (γ-H2AX): causes a DNA damage response
